# Source: ChEMBL document CHEMBL1145221, “2,3-Diphenylpropionic acids as potent VLA-4 antagonists” (Bioorg Med Chem Lett, 2005)
# Test: physchem
# Conditions: water
row,solubility,Compound
1,0.219 mg/mL,COc1cccc(OC)c1-c1ccc(C[C@H](NC(=O)c2c(Cl)cccc2Cl)C(=O)O)cc1
2,0.33 mg/mL,Cc1cccc(Br)c1C(=O)N[C@@H](Cc1ccc(NC(=O)c2c(Cl)cccc2Cl)cc1)C(=O)O
